Biological target: T1, wild-type human ALK cytoplasmic domain (amino acids 1058-1620) (Homo sapiens, UniProt Q9UM73)
T1 construct: The cytoplasmic domain (amino acids 1058-1620) of wild-type human ALK; GST (N); made in house; host or cells: SF9 insect cells
Test: ALK Inhibition in Enzyme Assay (Lance TR-FRET)
Format: biochemical
Details: not given
Protocol: ALK Inhibition in Enzyme Assay
Kinase activity of the purified protein was assessed using a Lance® TR-FRET assay. […] The reaction was allowed to proceed for 90 minutes at room temperature and was then terminated with 20 mM EDTA in 50 mM Tris (pH 7.5), 100 mM NaCl, 0.05% BSA, and 0.1% Tween-20. Phosphorylation of the peptide substrate was detected using the Lance® detection reagents streptavidin-allophycocyanin (SA-APC) and Eu-W1024 anti-phosphotyrosine antibody (PT66) from Perkin Elmer Life Sciences (Waltham, Mass.). The plates were read on a RUBY star plate reader (BMG LABTECH, Cary, N.C.) with an excitation wavelength of 320 nm.

T1 sequence (Q9UM73 1058-1620): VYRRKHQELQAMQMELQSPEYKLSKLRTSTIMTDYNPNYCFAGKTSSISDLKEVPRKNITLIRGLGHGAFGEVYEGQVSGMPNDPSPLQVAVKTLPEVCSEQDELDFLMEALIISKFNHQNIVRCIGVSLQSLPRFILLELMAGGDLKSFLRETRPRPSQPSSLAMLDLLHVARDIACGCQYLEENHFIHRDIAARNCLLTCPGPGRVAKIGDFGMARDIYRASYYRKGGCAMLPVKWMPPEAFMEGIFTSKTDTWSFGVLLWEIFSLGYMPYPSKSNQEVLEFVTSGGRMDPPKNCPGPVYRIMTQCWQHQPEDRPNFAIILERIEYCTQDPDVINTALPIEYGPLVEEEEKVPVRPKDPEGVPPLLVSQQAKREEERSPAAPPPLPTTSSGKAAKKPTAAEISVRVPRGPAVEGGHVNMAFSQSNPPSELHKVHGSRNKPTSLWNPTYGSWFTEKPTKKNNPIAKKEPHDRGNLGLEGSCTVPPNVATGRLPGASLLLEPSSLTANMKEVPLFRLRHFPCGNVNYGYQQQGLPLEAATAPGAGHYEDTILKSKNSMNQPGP

Structure (SMILES)	IC50
COc1cc(Nc2nccc(N3CCC[C@H](C(=O)NCc4cccc(N5CCOCC5)c4)C3)n2)cc(OC)c1OC [Example 85, (S)-N-(3-(4-morpholinyl)benzyl)-1-(2-((3,4,5-trimethoxyphenyl)amino)-4-pyrimidinyl)-3-piperidinecarboxamide]	< 50 nM

Same assay, conditions: 2 nM enzyme, ATP at 40 μM (Km apparent), 90 minutes, mean of three replicates; read-out: ALK IC50

Structure (SMILES)	IC50
COc1cc(Nc2nccc(N3CCC[C@H](C(=O)NC(C)(C)c4ccccc4)C3)n2)cc(OC)c1OC [Example 54, (S)-N-(1-methyl-1-phenylethyl)-1-(2-((3,4,5-trimethoxyphenyl)amino)-4-pyrimidinyl)-3-piperidinecarboxamide]	1000 to 5000 nM
COc1ccc(CCNC(=O)[C@H]2CCCN(c3ccnc(Nc4cc(OC)c(OC)c(OC)c4)n3)C2)cc1 [Example 93, (S)-N-(2-(4-methoxyphenyl)ethyl)-1-(2-((3,4,5-trimethoxyphenyl)amino)-4-pyrimidinyl)-3-piperidinecarboxamide]	100 to 1000 nM
Cc1ccc(CNC(=O)[C@H]2CCCN(c3ccnc(Nc4cccc(OCc5ccccc5)c4)n3)C2)cc1 [Example 175, (3S)-1-(2-((3-(benzyloxy)phenyl)amino)-4-pyrimidinyl)-N-(4-methylbenzyl)-3-piperidinecarboxamide]	1000 to 5000 nM
COc1cc(Nc2nccc(N3CCC[C@H](C(=O)NCc4ccc(C(F)(F)F)cc4)C3)n2)cc(OC)c1OC [Example 34, (S)-N-(4-(trifluoromethyl)benzyl)-1-(2-((3,4,5-trimethoxyphenyl)amino)-4-pyrimidinyl)-3-piperidinecarboxamide]	50 to 100 nM
Cc1ccc(CNC(=O)[C@H]2CCCN(c3ccnc(Nc4cccc(Cc5ccccc5)c4)n3)C2)cc1 [Example 152, (3S)-1-(2-((3-benzylphenyl)amino)-4-pyrimidinyl)-N-(4-methylbenzyl)-3-piperidinecarboxamide]	100 to 1000 nM
COc1cc(Nc2nccc(N3CCC[C@H](C(=O)NC[C@H](C)c4ccccc4)C3)n2)cc(OC)c1OC [Example 101, (S)-N-((R)-2-phenylpropyl)-1-(2-((3,4,5-trimethoxyphenyl)amino)-4-pyrimidinyl)-3-piperidinecarboxamide]	1000 to 5000 nM
COc1cc(Nc2nccc(N3CCC[C@H](C(=O)NCc4ccc(Br)cc4)C3)n2)cc(OC)c1OC [Example 47, (S)-N-(4-bromobenzyl)-1-(2-((3,4,5-trimethoxyphenyl)amino)-4-pyrimidinyl)-3-piperidinecarboxamide]	50 to 100 nM
COc1cc(Nc2nccc(N3CCC[C@H](C(=O)NCc4cc(Br)ccc4F)C3)n2)cc(OC)c1OC [Example 58, (S)-N-(5-bromo-2-fluorobenzyl)-1-(2-((3,4,5-trimethoxyphenyl)amino)-4-pyrimidinyl)-3-piperidinecarboxamide]	< 50 nM
CC(=O)Nc1cccc(Nc2nccc(N3CCC[C@H](C(=O)NCc4ccc(C)cc4)C3)n2)c1 [Example 178, (3S)-1-(2-((3-(acetylamino)phenyl)amino)-4-pyrimidinyl)-N-(4-methylbenzyl)-3-piperidinecarboxamide]	100 to 1000 nM
COc1cc(Nc2nccc(N3CCC[C@H](C(=O)NC(C#N)c4ccc(OC(F)(F)F)cc4)C3)n2)cc(OC)c1OC (stereo partly drawn) [Example 127, (S)-N-(cyano(4-(trifluoromethoxy)phenyl)methyl)-1-(2-(3,4,5-trimethoxyphenylamino)pyrimidin-4-yl)piperidine-3-carboxamide]	< 50 nM
COc1cc(Nc2nccc(N3CCC[C@H](C(=O)NCc4ccc(Oc5ccc(C)cc5)cc4)C3)n2)cc(OC)c1OC [Example 119, (S)-N-(4-(4-methylphenoxy)benzyl)-1-(2-((3,4,5-trimethoxyphenyl)amino)-4-pyrimidinyl)-3-piperidinecarboxamide]	100 to 1000 nM
COc1cc(Nc2nccc(N3CCC[C@H](C(=O)NC(c4ccccc4)C(F)(F)F)C3)n2)cc(OC)c1OC (stereo partly drawn) [Example 30, (S)-N-(2,2,2-trifluoro-1-phenylethyl)-1-(2-((3,4,5-trimethoxyphenyl)amino)-4-pyrimidinyl)-3-piperidinecarboxamide]	1000 to 5000 nM
COc1cc(Nc2nccc(N3CCC[C@H](C(=O)NCCc4cccc(Br)c4)C3)n2)cc(OC)c1OC [Example 94, (S)-N-(2-(3-bromophenyl)ethyl)-1-(2-((3,4,5-trimethoxyphenyl)amino)-4-pyrimidinyl)-3-piperidinecarboxamide]	< 50 nM
COc1cc(Nc2nccc(N3CCC[C@H](C(=O)NCc4ccc(C)cc4)C3)n2)cc(C(F)(F)F)c1 [Example 170, (3S)-1-(2-((3-methoxy-5-(trifluoromethyl)phenyl)amino)-4-pyrimidinyl)-N-(4-methylbenzyl)-3-piperidinecarboxamide]	100 to 1000 nM
COc1cc(Nc2nccc(N3CCC[C@H](C(=O)NCc4ccc(-n5cccn5)cc4)C3)n2)cc(OC)c1OC [Example 46, (S)-N-(4-(1H-pyrazol-1-yl)benzyl)-1-(2-((3,4,5-trimethoxyphenyl)amino)-4-pyrimidinyl)-3-piperidinecarboxamide]	1000 to 5000 nM
COc1cc(Nc2nccc(N3CCC[C@H](C(=O)NC(C)c4ccc(O)cc4)C3)n2)cc(OC)c1OC (stereo partly drawn) [Example 53, (S)-N-(1-(4-hydroxyphenyl)ethyl)-1-(2-((3,4,5-trimethoxyphenyl)amino)-4-pyrimidinyl)-3-piperidinecarboxamide]	5000 to 10000 nM
COc1cc(Nc2nccc(N3CCC[C@H](C(=O)NCCc4cccc(C(F)(F)F)c4)C3)n2)cc(OC)c1OC [Example 96, (S)-N-(2-(3-(trifluoromethyl)phenyl)ethyl)-1-(2-((3,4,5-trimethoxyphenyl)amino)-4-pyrimidinyl)-3-piperidinecarboxamide]	< 50 nM
COc1cc(Nc2nccc(N3CCC[C@H](C(=O)NCc4ccc(NC(C)=O)cc4)C3)n2)cc(OC)c1OC [Example 124, (S)-N-(4-(acetylamino)benzyl)-1-(2-((3,4,5-trimethoxyphenyl)amino)-4-pyrimidinyl)-3-piperidinecarboxamide]	1000 to 5000 nM
COc1cc(Nc2nccc(N3CC(C(=O)NCc4ccc(C)cc4)CCC3C)n2)cc(OC)c1OC (mixture of isomers) [Example 194, 6-Methyl-N-(4-Methylbenzyl)-1-(2-(3,4,5-Trimethoxyphenylamino)Pyrimidin-4-Yl)Piperidine-3-Carboxamide]	100 to 1000 nM
COc1cc(Nc2nccc(N3CCC[C@H](C(=O)NCc4ccc(C)c(Cl)c4)C3)n2)cc(OC)c1OC [Example 74, (S)-N-(3-chloro-4-methylbenzyl)-1-(2-((3,4,5-trimethoxyphenyl)amino)-4-pyrimidinyl)-3-piperidinecarboxamide]	100 to 1000 nM
COc1cc(Nc2nccc(N3CCC[C@H](C(=O)NC(C#N)c4ccccc4)C3)n2)cc(OC)c1OC (stereo partly drawn) [Example 43, (S)-N-(cyano(phenyl)methyl)-1-(2-((3,4,5-trimethoxyphenyl)amino)-4-pyrimidinyl)-3-piperidinecarboxamide]	100 to 1000 nM
COc1ccc(NC(C)=O)cc1Nc1nccc(N2CCC[C@H](C(=O)NCc3ccc(C)cc3)C2)n1 [Example 138, (3S)-1-(2-((5-(acetylamino)-2-methoxyphenyl)amino)-4-pyrimidinyl)-N-(4-methylbenzyl)-3-piperidinecarboxamide]	1000 to 5000 nM
COc1cc(Nc2nccc(N3CCC[C@H](C(=O)NCc4cccc(-c5ccc(F)cc5)c4)C3)n2)cc(OC)c1OC [Example 108, (S)-N-((4′-fluoro-3-biphenylyl)methyl)-1-(2-((3,4,5-trimethoxyphenyl)amino)-4-pyrimidinyl)-3-piperidinecarboxamide]	< 50 nM
